This note sets out measurements from article PMC5354814, “In silico and in vitro drug screening identifies new therapeutic approaches for Ewing sarcoma” (Oncotarget, 2016).

Assay in all cases: In vitro high-throughput screen of FDA-approved drug library (CellTiter-Glo)
Holding throughout (assay type): cell-based
Background: ATP-based viability assays read luminescence as a measure of living cells.

In experiment [1] the test system is Hs 919.T. The following applies: 1 μmol/L drug, 72 hours, control cell line; for inhibition at 1 µM: read-out: % Inhibition Hs 919.T. Here is the method:
(§1) We screened, in parallel to the three computational approaches, an FDA-approved drug library containing 2,316 drugs (1,536 unique chemical entities). […] The drug screening study protocol employed is summarized in Supplementary Table S1.
(§2) Cells were grown to 80–90% confluence, harvested and aliquoted into 384-well plates (black μClear microplates, Greiner bio-one, Germany) at concentrations of 750–1,500 cells per well in a total volume of 25 μl/well using a Matrix Wellmate (Thermo Scientific). Cells were cultured for 72 hours in a 5% CO2 atmosphere at 37°C. Aliquots of 25 μl CellTiter-Glo® Reagent (Promega) were added directly to each well, the plates were incubated at room temperature for 20 min and the luminescence signal was measured according to the manufacturer's protocol. The measurements were made using Infinite® M200 Pro plate reader (Tecan, Switzerland). […] Data were normalized to percentage inhibition. […]
(§3) (A) Color scale for drug inhibition values. […]

For experiment [2], the system named is A673. The following applies: 1 μmol/L drug, 72 hours; for inhibition at 1 µM: Homo sapiens, A673, read-out: % Inhibition A673. The protocol:
as §1, §2, §3

For experiment [3], the system named is SK-ES-1. Particulars: 1 μmol/L drug, 72 hours; for inhibition at 1 µM: Homo sapiens, SK-ES1, read-out: % Inhibition SK-ES-1. The protocol: as §1, §2, §3
In experiment [4] the test system is RD-ES. Particulars: 1 μmol/L drug, 72 hours; for inhibition at 1 µM: RD-ES, read-out: % Inhibition RD-ES. Here is the method: as §1, §2, §3

As usually defined, the inhibition is the relative decrease from the control value, in per cent.

Structures are written as SMILES.

On to `CCN(CC)C(=S)SSC(=S)N(CC)CC` [Disulfiram], for which the inhibition at 1 µM in experiment [1] is less than 50%; in experiment [2] it was 99%; in experiment [3], 95%; in experiment [4] it was 96%.
As to `O=c1c2ccccc2[se]n1-c1ccccc1` [Ebselen], the inhibition at 1 µM in experiment [1] is less than 50%; in experiment [2], 93%; in experiment [3] it was 96%; in experiment [4], 95%.
In the case of `C[C@]12CC[C@@H]3c4ccc(O)cc4CC[C@H]3[C@@H]1CC[C@@H]2O` [Estradiol], the inhibition at 1 µM was less than 50% in experiment [1], 65% in experiment [2], less than 50% in experiment [3] and less than 50% in experiment [4].
For the compound `COc1cc([C@@H]2c3cc4c(cc3[C@@H](O[C@@H]3O[C@@H]5CO[C@@H](C)O[C@H]5[C@H](O)[C@H]3O)[C@H]3COC(=O)[C@H]23)OCO4)cc(OC)c1O` [Etoposide], the inhibition at 1 µM is less than 50% in experiment [1], less than 50% in experiment [2], 84% in experiment [3] and 84% in experiment [4].
For `COC(=O)Nc1nc2ccc(Sc3ccccc3)cc2[nH]1` [Fenbendazole], the inhibition at 1 µM in experiment [1] is less than 50%; in experiment [2] it was 75%; in experiment [3], 78%; in experiment [4], 86%.
As to `O=c1[nH]c(=O)n([C@H]2C[C@H](O)[C@@H](CO)O2)cc1F` [Floxuridine], the inhibition at 1 µM in experiment [1] is less than 50%; in experiment [2] it was 68%; in experiment [3] it was 56%; in experiment [4] it was 92%.
`COC(=O)Nc1nc2cc(C(=O)c3ccc(F)cc3)ccc2[nH]1` [Flubendazole]: the inhibition at 1 µM in experiment [1] is less than 50%; in experiment [2], 77%; in experiment [3], 86%; in experiment [4], 86%.
On to `CCc1c2c(nc3ccc(OC(=O)N4CCC(N5CCCCC5)CC4)cc13)-c1cc3c(c(=O)n1C2)COC(=O)[C@]3(O)CC.Cl` [Irinotecan Hydrochloride], for which, in experiment [1], the “% Inhibition Hs 919.T.” value was less than 50%. Further, the “% Inhibition A673” value in experiment [2] is 83%. Besides, the “% Inhibition SK-ES-1” value in experiment [3] stood at 98%. Also, in experiment [4], the “% Inhibition RD-ES” value turned out to be 99%.
Turning to `NNC(=O)c1ccncc1` [Isoniazid], the inhibition at 1 µM is less than 50% in experiment [1], 56% in experiment [2], less than 50% in experiment [3] and less than 50% in experiment [4].
Consider `CN(Cc1cnc2nc(N)nc(N)c2n1)c1ccc(C(=O)N[C@@H](CCC(=O)O)C(=O)O)cc1` [L-Glutamic acid, N-[4-[[(2,4-diamino-6-pteridinyl)methyl]methylamino]benzoyl]], for which the “% Inhibition Hs 919.T.” value in experiment [1] was less than 50%. In addition, the “% Inhibition A673” value in experiment [2] was found to be 85%. The “% Inhibition SK-ES-1” value in experiment [3] is given as 57%. Also, in experiment [4], the “% Inhibition RD-ES” value is given as 77%.
Take `COC(=O)Nc1nc2ccc(C(=O)c3ccccc3)cc2[nH]1` [Mebendazole]: the inhibition at 1 µM was less than 50% in experiment [1], 94% in experiment [2], 96% in experiment [3] and 95% in experiment [4].
For `N[C@@H](Cc1ccc(N(CCCl)CCCl)cc1)C(=O)O` [Melphalan], the inhibition at 1 µM was less than 50% in experiment [1], less than 50% in experiment [2], 91% in experiment [3] and 95% in experiment [4].
In the case of `S=c1[nH]cnc2nc[nH]c12` [Mercaptopurine], the inhibition at 1 µM in experiment [1] is less than 50%; in experiment [2], less than 50%; in experiment [3], 57%; in experiment [4] it was less than 50%.
`C[C@]12CCC(=O)C=C1CC[C@@H]1[C@@H]2CC[C@@]2(C)[C@H]1CC[C@]2(C)O` [Methyltestosterone]: the inhibition at 1 µM in experiment [1] is less than 50%; in experiment [2] it was less than 50%; in experiment [3], less than 50%; in experiment [4] it was 73%.
Consider `COc1c(C)c2c(c(O)c1C/C=C(\C)CCC(=O)O)C(=O)OC2` [Mycophenolic Acid], for which the inhibition at 1 µM in experiment [1] is less than 50%; in experiment [2], less than 50%; in experiment [3], less than 50%; in experiment [4], 52%.
With `NC(=O)N/N=C/c1ccc([N+](=O)[O-])o1` [Nitrofural/Nitrofurazone, Nitrofurazone], the inhibition at 1 µM in experiment [1] is less than 50%; in experiment [2] it was 52%; in experiment [3], 72%; in experiment [4], 52%.
